# Structures can show the parent of a compound that is named as a salt.
# Legend:
# mice [1] = assay: overall behavior and reactivities in mice; type: in vivo, mouse; conditions: mice, i.p.; dose not stated
# Description: (§1) Groups of three animals are observed before and then 0.25 hour, 0.50 hour, 1 hour, 2 hours, 3 hours and 24 hours after the administration of CRL 41 224.
# mice [2] = assay: four plate test, traction and electric shock; type: in vivo, mouse; conditions: i.p., dose not stated
# Description: The test is performed on groups of 10 mice 30 minutes after the administration of CRL 41 224.
# mice [3] = assay: interaction with barbital; type: in vivo, mouse; conditions: i.p.; dose not stated
# Description: Half an hour after the administration of CRL 41 224, groups of 10 mice receive an intraperitoneal injection of barbital (220 mg/kg).
# mice [4] = assay: action on the spontaneous motility (actimeter); type: in vivo, mouse; conditions: mice, i.p.; dose not stated
# Description: 0.5 hour after they have received CRL 41 224, the mice (6 per dose, 12 control animals) are placed in an actimeter, where their motility is recorded for 30 minutes.
# mice [5] = assay: asphyxiant anoxia (gallamine triiodoethylate); type: in vivo, mouse; conditions: i.p.; dose not stated
# Description: Groups of 10 mice receive CRL 41 224 half an hour before the intraperitoneal administration of 32 mg/kg of gallamine triiodoethylate (reference curarizing agent).
# mice [6] = assay: interaction with reserpine; type: in vivo, mouse; conditions: i.p.; dose not stated
# Description: Four hours after the intraperitoneal injection of 2.5 mg/kg of reserpine, groups of 6 mice receive CRL 41 224.
# mice [7] = assay: interaction with apomorphine in mice; type: in vivo, mouse; conditions: i.p.; dose not stated
# Description: Groups of 6 mice receive CRL 41 224 0.5 hour before the subcutaneous injection of 1 or 16 mg/kg of apomorphine.
# rats [8] = assay: interaction with apomorphine in rats; type: in vivo, rat; conditions: i.p., dose not stated
# Description: CRL 41 224 is administered to groups of 6 rats 0.5 hour before the subcutaneous injection of 0.5 mg/kg of apomorphine.
# [9] = system: peripheral α-adrenergic stimulation; assay: signs of peripheral adrenergic stimulation; type: in vivo, mouse; rat; conditions: i.p.; dose not stated
# Description: as §1
# rats [10] = assay: interaction with amphetamine; type: in vivo, rat; conditions: rats, i.p.; dose not stated
# Description: Amphetamine (2 mg/kg) is injected intraperitoneally into groups of 6 rats 30 minutes after the administration of CRL 41 224.
# mice [11] = assay: action on the behavioral despair; type: in vivo, mouse; conditions: i.p., dose not stated
# From the text: Half an hour after they have received CRL 41 224, groups of 6 mice are placed in a beaker filled with water to a height of 6 cm. The total period of immobility between the 2nd and 6th minutes following immersion is noted.
# mice [12] = assay: motility reduced by habituation to the enclosure; type: in vivo, mouse; conditions: i.p., dose not stated
# Description: After they have stayed in the actimeters for 18 hours, the mice (6 per dose, 12 control animals) receive CRL 41 224. They are immediately returned to their respective enclosures and, half an hour later, their motility is recorded for 30 minutes.
# rats [13] = assay: overall behavior and reactivities in rats; type: in vivo, rat; conditions: i.p., dose not stated
# Description: as §1
# mice [14] = assay: interaction with oxotremorine; type: in vivo, mouse; conditions: i.p.; dose not stated
# Description: CRL 41 224 is administered to groups of 6 mice 0.5 hour before the intraperitoneal injection of 0.5 mg/kg of oxotremorine.
# mice [15] = assay: motility reduced by hypoxic aggression; type: in vivo, mouse; conditions: i.p., dose not stated
# Description: Half an hour after they have received CRL 41 224, the mice (10 per dose, 20 control animals) are subjected to acute hypobaric anoxia [pressure reduction of 600 mm Hg (i.e. about 8×10^4 Pa) in 90 seconds; release of vacuum in 45 seconds] and are then placed in an actimeter, where their motility is recorded for 10 minutes.
# CNS = assay: overall neuropsychopharmacological (CNS) profile; type: in vivo, mouse; rat; conditions: i.p., mice and rats; dose not stated
# Description: The neuropsychopharmacological study of CRL 41 219 was carried out as indicated above for CRL 41 224.
# The neuropsychopharmacological study of CRL 41 220 was carried out in accordance with the procedures given above for CRL 41 224.
# male mice = assay: acute toxicity, intraperitoneal (lethal doses); type: in vivo, mouse; conditions: i.p.
# Description: (§2) By intraperitoneal administration to male mice, the LD-30 (lethal dose for 30% of the animals tested) is of the order of 128 mg/kg and the LD-50 is of the order of about 200 mg/kg.
# [16] = acute toxicity, intraperitoneal (lethal doses); type: in vivo, mouse; conditions: mouse, in vivo, ip; male mice
# Description: as §2
# dogs = assay: cardiovascular action in anesthetized dogs; type: in vivo, dog
# Description: Four dogs (average weight: 13.8 kg), anesthetized with nembutal, receive CRL 41 220 by intraduodenal administration at successive doses of 0.1 mg/kg, 0.5 mg/kg, 1 mg/kg, 2.5 mg/kg, 5 mg/kg and 10 mg/kg. The blood pressure, the heart beat, the flow rate through the femoral artery, the flow rate through the vertebral artery and the rectal and/or skin temperature are measured and the coloration of the skin and the bile (collected by catheterization of the bile duct after ligature of the cystic duct) is observed.
# immunological properties = assay: immunological properties, overall; type: in vivo; conditions: dose not stated
# From the text: The present 1-(acetylaminophenyl)-2-aminopropanone derivatives are useful in therapy. They all act on the CNS, more precisely as antidepressants. They have a stimulant or excitant component in their neuropsychopharmacological profile.
# [17] = system: delayed hypersensitivity to the red blood corpuscles of sheep; assay: delayed hypersensitivity to the red blood corpuscles of sheep (Miller); type: in vivo; conditions: dose not stated
# man = assay: clinical trials; type: in vivo, human; conditions: man, oral, 250 to 500 mg
# [18] = system: spleen cells expressing a direct IgM antibody response; assay: test for cells forming lysis areas (PFC IgM, Cunningham); type: in vivo, mouse; conditions: dose not stated
# Description: Immunological assays were carried out in order to point out the interest of CRL 41 240 as an immunomodulating agent. Specifically, the test used was the so-called test for cells forming lysis areas, described by A. J. […] et al. ("Further improvements in the plaque technique for detecting simple antibody forming cells"), Immunology 14, pages 599-601 (1968).
# The test for cells forming lysis areas (or PFC IgM) explores the humoral immunity. Four days after immunization with a T-dependent antigen (in this case red blood corpuscles of sheep), the spleen cells expressing a direct IgM antibody response are counted. The mice used for this purpose are conventional female OF1 mice devoid of specific pathogenic organisms, weighing from 20 to 30 g and divided up into a control group of 14 animals and groups each containing 7 animals per dose and per product to be studied, administered orally on the same day as the antigen. An activity index I is calculated for each dose of product according to the following equation: [formula]
# This test is performed at least twice for each dose of test product [C(control amimals), 0.01, 0.1, 10 and 100 mg/kg] and a statistical study is undertaken using the Student t test after variance analysis on the number of lyses per spleen.
# LEWIS' carcinoma = LEWIS' carcinoma in mice; type: in vivo, mouse
# Description: a. animals: consanguineous female mice (C57 BL6), b. infecting cells: 10^5 cells injected subcutaneously into the back of the animals, c. monitoring of the tumor growth by measurement of the tumor twice a week, d. evaluation of the pulmonary metastases after fixation of the lungs of the dead animals in BOUIN's fixative.
# Using the same procedures, the association of CRL 41 220 with 150 mg/kg of cyclophosphamide gives the results collated in Table II below.
# [19] = dogs, after accumulated 19.1 mg/kg intraduodenal
# [20] = dogs, after intraduodenal CRL 41 220
# [21] = CRL 41 220 2 mg/kg + cyclophosphamide 150 mg/kg
structure (smiles),measurement,setting,value
"CC(=O)Nc1ccc(C(=O)C(C)N2CCCC2)cc1Cl (stereo not shown) [CRL 41 219, 1-(4-acetylamino-3-chlorophenyl)-2-pyrrolidinopropanone hydrochloride]",excitation in mice,mice [1],excitation with hyperreactivity
same,stereotype movements in mice,mice [1],late appearance of stereotypies
same,lethal effects of electric shock,mice [2],aggravation of the lethal effects of electric shock
same,number of punished passes in the 4 plate test,mice [2]; mice,increase in the number of punished passes
same,sleep induced by barbital,mice [3],antagonism of the sleep induced by barbital
same,spontaneous motility / motor activity,mice [4],"hyperactivity, increase in the spontaneous motor activity"
same,time taken for convulsions and death to occur following asphyxiant anoxia,mice [5],reduction in the time taken for convulsions and death to occur following asphyxiant anoxia
same,hypothermia induced by reserpine,mice [6],"antagonism of the hypothermia induced by apomorphine, reserpine"
same,ptosis induced by reserpine,mice [6],antagonism of the ptosis induced by reserpine
same,hypothermia induced by apomorphine,mice [7],antagonism of the hypothermia induced by apomorphine
same,stereotypies induced by apomorphine,rats [8],potentiation of the stereotypies induced by apomorphine
same,mydriasis,[9],mydriasis
same,"peripheral adrenergic stimulation, overall",[9],effects reflecting peripheral α-adrenergic stimulation
same,stereotypies induced by amphetamine,rats [10],potentiation of the stereotypies induced by apomorphine and amphetamine
same,"period of immobility or ""despair""",mice [11],reduction in the immobility
same,motor activity after habituation to the enclosure,mice [12],resumption in the motor activity after habituation to the enclosure
same,excitation in rats,rats [13],excitation (with hyperractivity)
same,stereotype movements in rats,rats [13],presence of stereotype movements
same,hypothermia induced by oxotremorine,mice [14],"antagonism of the hypothermia induced by apomorphine, reserpine and oxotremorine"
same,trembling caused by oxotremorine,mice [14],antagonism of the trembling caused by oxotremorine
same,motor recovery after hypoxic aggression,mice [15],improvement in the motor recovery after hypoxic aggression
same,overall action on the CNS,CNS,"antidepressant, stimulant and arousing properties"
same,LD-30,male mice,~128 mg/kg
same,LD50,[16],~200 mg/kg
"CC(=O)Nc1c(Cl)cc(C(=O)C(C)NC(C)C)cc1Cl (stereo not shown) [CRL 41 220, 1-(4-acetylamino-3,5-dichlorophenyl)-2-isopropylaminopropanone hydrochloride]",respiratory stimulation,"dogs; 4 dogs, intraduodenal",induces respiratory stimulation in the 4 dogs
same,diastolic blood pressure before isoprenaline,dogs; [19],112 mm Hg
same,diastolic blood pressure with 10 μg/kg of isoprenaline,dogs; [19],47 mm Hg
same,effect of isoprenaline on the diastolic blood pressure after CRL 41 220,dogs; [19],very slightly modified as regards the diastolic blood pressure
same,effect of isoprenaline on the heart beat after CRL 41 220,dogs; [19],not modified as regards the heart beat
same,heart beat before isoprenaline,dogs; [19],221 beats/minute
same,heart beat with 10 μg/kg of isoprenaline,dogs; [19],275 beats/minute
same,effect of 1 mg/kg of propanolol at the end of the test,dogs; [20],suppresses all the effects of CRL 41 220
same,systolic blood pressure before noradrenaline,dogs; [20],202 mm Hg
same,systolic blood pressure with 2 μg/kg of noradrenaline,dogs; [20],272 mm Hg
same,hypertension induced by noradrenaline,"dogs; dogs, after intraduodenal CRL 41 220, noradrenaline 2 μg/kg",hypertension induced by noradrenaline is reduced
same,overall cardiovascular action,"dogs; dogs, intraduodenal",acts as a hypotensive agent
same,rectal and skin temperatures,"dogs; dogs, intraduodenal",increases the rectal and skin temperatures
same,femoral flow rate,"dogs; dogs, intraduodenal, 1 mg/kg","increases the vertebral flow rate as from a dose of 0.5 mg/kg, the femoral flow rate"
same,heart beat,"dogs; dogs, intraduodenal, 2.5 mg/kg","increases the vertebral flow rate as from a dose of 0.5 mg/kg, the femoral flow rate at a dose of 1 mg/kg and the heart beat"
same,hypotensive effect,"dogs; dogs, intraduodenal, 10 mg/kg",hypotensive effect
same,vertebral flow rate,"dogs; dogs, intraduodenal, as from 0.5 mg/kg",increases the vertebral flow rate
same,"immunological properties, overall",immunological properties,beneficial immunomodulating effects
same,"immunomodulating activity, delayed hypersensitivity",[17],immunomodulating stimulant capacity
same,"clinical result: circulatory disorders and insufficient immunoreaction (recurrent herpes, rheumatoid polyarthritis, severe measles)",man,good results
same,"immunomodulating activity, test for cells forming lysis areas",[18],immunomodulating stimulant capacity
same,overall action on the CNS,CNS,antidepressant and stimulant effects
same,LD-0 (maximum non-lethal dose),male mice,greater than 128 mg/kg
same,LD-30,male mice,about 250 mg/kg
same,LD50,[16],~500 mg/kg
same,animals treated still being alive several weeks after the experiment,LEWIS' carcinoma; [21],all
same,protective action in respect of LEWIS' carcinoma,LEWIS' carcinoma; [21],unquestionable protective
same,differences compared with cyclophosphamide used by itself,LEWIS' carcinoma; CRL 41 220 5 mg/kg + cyclophosphamide 150 mg/kg,substantially few
same,toxicity of the association compared with cyclophosphamide used by itself,LEWIS' carcinoma; CRL 41 220 100 mg/kg + cyclophosphamide 150 mg/kg,increase in the toxicity
same,"activity in LEWIS' carcinoma, used by itself","LEWIS' carcinoma; female C57 BL6 mice, alone",inactive
same,"activity in the study of LEWIS' carcinoma, overall statement",LEWIS' carcinoma; mice,active
